For assay [1], the system named is T47D cells. Nature of the assay: Cellular Growth Inhibition Assay for T47D Cells (CellTiter-Glo). The note with it: 72 hours. It is filed as cell-based, human. As to the method: Exemplary compounds were tested for ability to inhibit the proliferation of T47D cells. T47D cells are a commercially available human breast cancer cell line.
T47D cells were purchased from American Type Cell Culture (ATCC Cat #HTB-133) and then seeded on poly-D-lysine coated, black clear-bottom 384-well plates at 3000/well in 25 μL Dulbecco's Modified Eagle Medium (DMEM) supplemented with 10% w/w Fetal bovine serum (FBS), 0.2 units/mL recombinant human insulin (Gibco Cat #12585014), and 1% w/w Pen-Strep. Pen-Strep is a commercially available mixture of penicillin G and streptomycin, which is used in mammalian cell culture media to prevent bacterial contamination. Dulbecco's Modified Eagle Medium (DMEM) supplemented with 10% w/w fetal bovine serum (FBS), 0.2 units/mL recombinant human insulin, and 1% w/w Pen-Strep is herein referred to as Treatment Medium. Following seeding of cells in the plates, the plates were spun at 300×g for 30 seconds, then equilibrated to room temperature for 30 minutes, and then deposited in a humidified tissue culture incubator maintained at 37° C. with 5% CO2.
At 24 hours after seeding of the cells, dilutions of test compound were prepared in DMSO and dissolved in Treatment Medium, to achieve a final DMSO concentration of 0.5% w/w, thereby providing the Test Compound Solution. A 25 μL aliquot of the Test Compound Solution was added to cells in the well plates. An equal volume of a solution containing DMSO and Treatment Medium was used as a negative control. Following treatment of cells with Test Compound Solution or said equal volume of a solution containing DMSO and Treatment Medium, the plates were spun at 300×g for 30 seconds, and then left in an incubator for 72 hours.
At the end of the treatment duration, cell viability was quantified with CellTiter-Glo 2.0 reagent (Promega Cat #G9243). For this purpose, plates were equilibrated to room temperature for 30 minutes, and then 25 μL of CellTiter-Glo 2.0 reagent was added to cells in the plate wells. Plates were then agitated on a shaker for two minutes at 500 rpm and subsequently incubated at room temperature for 10 minutes. Following incubation, the plates were spun at 3000×g for 30 seconds, then sealed with an optical adhesive cover, and luminescence readings were measured with an EnVision Plate Reader (Perkin Elmer).
Data was normalized using zero luminescence for baseline. A four-parameter non-linear regression curve fit was applied to dose-response data in GraphPad Prism data analysis software to determine the half-maximal growth inhibitory concentration (GI50) for each test compound.

Assay [2] relates to T-Rex 293 cell line SC3 cells lacking increased expression of androgen receptor protein. The assay is described as follows: Cellular growth inhibition, T-Rex 293 SC3 cells without doxycycline (no increased androgen receptor expression), CellTiter-Glo. The class given is cell-based. The note with it: T-Rex 293 SC3 cells not exposed to doxycycline (no increased androgen receptor expression), 72 hours. The method in brief:
(§1)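 Growth inhibition is measured in an inducible AR-expressing T-Rex 293 clone, SC3, cultured with or without 10 ng/mL doxycycline in hormone-depleted medium. Test compounds are applied for 72 hours. GI50 values derive from CellTiter-Glo 2.0 signal fitted by four-parameter regression.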

For assay [3], the system named is T-Rex 293 cell line SC3 cells having increased expression of androgen receptor protein due to exposure to doxycycline. Nature of the assay: Cellular growth inhibition, T-Rex 293 SC3 cells with doxycycline (increased androgen receptor expression), CellTiter-Glo. It is filed as cell-based. The conditions noted are these: T-Rex 293 SC3 cells with 10 ng/mL doxycycline (increased androgen receptor expression), 72 hours, CellTiter-Glo 2.0. The method in brief: as §1

In assay [4] the test system is VCaP cells. The assay is described as follows: Cellular growth inhibition assay for VCaP cells, CellTiter-Glo. It is filed as cell-based, human. The conditions noted are these: 72 hours. The method in brief: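 GI50 values come from four-parameter curve fits of luminescence data normalized to a zero baseline. Compound, in medium with 0.5% DMSO, was added one day after plating and left for 72 h before CellTiter-Glo 2.0 addition.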

Each structure is given as a SMILES string. Where only a bound is given, the exact number is not on record here.

`CC(C)c1ccc(Oc2cccc(OCCC3CCN(c4ncc(C(=O)N[C@H]5C(C)(C)[C@H](Oc6ccc(C#N)c(Cl)c6)C5(C)C)cn4)CC3)c2)c(-c2cn(C)c(=O)c3[nH]ccc23)c1` [Compound I-141] yielded a 50% growth inhibitory concentration (GI50) in assay [1] of 500 to 1500 nM.

Consider `CCS(=O)(=O)c1ccc(Oc2cccc(CCCOC3CCN(c4ncc(C(=O)N[C@H]5C(C)(C)[C@H](Oc6ccc(C#N)c(Cl)c6)C5(C)C)cn4)CC3)c2F)c(-c2cn(C)c(=O)c3[nH]ccc23)c1` [Compound I-176], for which the GI50 in assay [2], in assay [3] and in assay [4] (Homo sapiens) was less than 500 nM in each case.

For `CCS(=O)(=O)c1ccc(OCC(OCCOC2CCN(c3ncc(C(=O)N[C@H]4C(C)(C)[C@H](Oc5ccc(C#N)c(Cl)c5)C4(C)C)cn3)CC2)C2CC2)c(-c2cn(C)c(=O)c3[nH]ccc23)c1` (stereo partly shown) [Compound I-177], the GI50 in assay [2], in assay [3] and in assay [4] was less than 500 nM in each case. With `CCS(=O)(=O)Nc1ccc(Oc2cccc(N(CCN(C)C3CCN(c4ncc(C(=O)N[C@H]5C(C)(C)[C@H](Oc6ccc(C#N)c(Cl)c6)C5(C)C)cn4)CC3)C(C)C)c2F)c(-c2cn(C)c(=O)c3[nH]ccc23)c1` [Compound I-183], the concentration for 50% growth inhibition (GI50) in assay [2], in assay [3] and in assay [4] was less than 500 nM in each case. As to `CCS(=O)(=O)Cc1ccc(Oc2cccc(CCCOC3CCN(c4ncc(C(=O)N[C@H]5C(C)(C)[C@H](Oc6ccc(C#N)c(Cl)c6)C5(C)C)cn4)CC3)c2F)c(-c2cn(C)c(=O)c3[nH]ccc23)c1` [Compound I-184], the GI50 in assay [2], in assay [3] and in assay [4] (Homo sapiens) was less than 500 nM in each case. For the compound `CCS(=O)(=O)Nc1ccc(Oc2cccc(OCCOC3CCN(c4ccc(C(=O)N[C@H]5C(C)(C)[C@H](Oc6ccc(C#N)c(Cl)c6)C5(C)C)cn4)CC3)c2F)c(-c2cn(C)c(=O)c3[nH]ccc23)c1` [Compound I-188], the GI50 in assay [2], in assay [3] and in assay [4] (Homo sapiens) was less than 500 nM each time. In the case of `Cn1cc(-c2cc(C(C)(C)O)ccc2Oc2ccc(CC3CC4(CCN(c5ncc(C(=O)N[C@H]6C(C)(C)[C@H](Oc7ccc(C#N)c(Cl)c7)C6(C)C)cn5)CC4)C3)cc2)c2cc[nH]c2c1=O` [Compound I-324], the GI50 in assay [1] (Homo sapiens) was less than 500 nM. Take `Cn1cc(-c2cc(C(C)(C)O)ccc2Oc2ccc(N3CC4(CCN(c5cnc(C(=O)N[C@H]6C(C)(C)[C@H](Oc7ccc(C#N)c(Cl)c7)C6(C)C)cn5)CC4)C3)cc2)c2cc[nH]c2c1=O` [Compound I-352]: the GI50 in assay [2] was more than 3000 nM; in assay [3] it was less than 500 nM; in assay [4] it was less than 500 nM.

As to `Cn1cc(-c2cc(C(C)(C)O)ccc2Oc2ccc(N3CC4(CCN(c5ncc(C(=O)N[C@H]6C(C)(C)[C@H](Oc7ccc(C#N)c(Cl)c7)C6(C)C)cn5)CC4)C3)cc2)c2cc[nH]c2c1=O` [Compound I-353], the GI50 in assay [2] was 1500 to 3000 nM; in assay [3], less than 500 nM; in assay [4] it was 1500 to 3000 nM. In turn, `Cn1cc(-c2cc(C(C)(C)O)ccc2Oc2ccc(C3CC(CC4CCN(c5ncc(C(=O)N[C@H]6C(C)(C)[C@H](Oc7ccc(C#N)c(Cl)c7)C6(C)C)cn5)CC4)C3)cc2)c2cc[nH]c2c1=O` (stereo partly shown) [Compound I-354] displayed a 50% growth inhibitory concentration (GI50) in assay [1] (Homo sapiens) of less than 500 nM.

`Cn1cc(-c2cc(C(C)(C)O)ccc2Oc2ccc(N3CC4(C3)CN(c3cnc(C(=O)N[C@H]5C(C)(C)[C@H](Oc6ccc(C#N)c(Cl)c6)C5(C)C)cn3)C4)cc2)c2cc[nH]c2c1=O` [Compound I-355] gave a GI50 in assay [1] of less than 500 nM. For `Cn1cc(-c2ccccc2Oc2ccc(OCC3CCN(c4ncc(C(=O)NC5C(C)(C)C(Oc6ccc(C#N)c(Cl)c6)C5(C)C)cn4)CC3)cc2)c2cc[nH]c2c1=O` (stereo not shown) [Compound I-356, N-[3-(3-chloro-4-cyano-phenoxy)-2,2,4,4-tetramethyl-cyclobutyl]-2-[4-[[4-[2-(6-methyl-7-oxo-1H-pyrrolo[2,3-c]pyridin-4-yl)phenoxy]phenoxy]methyl]-1-piperidyl]pyrimidine-5-carboxamide], the GI50 in assay [1] (Homo sapiens) was less than 500 nM. Same read-out and setting: under `Cn1cc(-c2cc(C(C)(C)O)ccc2Oc2ccc(C#CC3CC4(C3)CN(c3ncc(C(=O)NC5C(C)(C)C(Oc6ccc(C#N)c(Cl)c6)C5(C)C)cn3)C4)cc2)c2cc[nH]c2c1=O` (stereo not shown) [Compound I-357, N-[3-(3-chloro-4-cyano-phenoxy)-2,2,4,4-tetramethyl-cyclobutyl]-2-[6-[2-[4-[4-(1-hydroxy-1-methyl-ethyl)-2-(6-methyl-7-oxo-1H-pyrrolo[2,3-c]pyridin-4-yl)phenoxy]phenyl]ethynyl]-2-azaspiro[3.3]heptan-2-yl]pyrimidine-5-carboxamide] stands less than 500 nM; under `Cn1cc(-c2ccccc2Oc2ccc(OC3CC4(C3)CC3(CCN(c5ncc(C(=O)N[C@H]6C(C)(C)[C@H](Oc7ccc(C#N)c(Cl)c7)C6(C)C)cn5)CC3)C4)cc2)c2cc[nH]c2c1=O` [Compound I-358], more than 3000 nM.

In the case of `Cn1cc(-c2ccccc2Oc2ccc(N3CC(CC4CCN(c5ncc(C(=O)N[C@H]6C(C)(C)[C@H](Oc7ccc(C#N)c(Cl)c7)C6(C)C)cn5)CC4)C3)cc2)c2cc[nH]c2c1=O` [Compound I-359], the concentration for 50% growth inhibition (GI50) in assay [1] was more than 3000 nM. The same measure, in the same setting: under `Cn1cc(-c2ccccc2Oc2ccc(N3CC(C4CCN(c5ncc(C(=O)N[C@H]6C(C)(C)[C@H](Oc7ccc(C#N)c(Cl)c7)C6(C)C)cn5)CC4)C3)cc2)c2cc[nH]c2c1=O` [Compound I-360] stands 500 to 1500 nM. As for `Cn1cc(-c2ccccc2Oc2ccc(N3CC(CC4CCN(c5cnc(C(=O)N[C@H]6C(C)(C)[C@H](Oc7ccc(C#N)c(Cl)c7)C6(C)C)cn5)CC4)C3)cc2)c2cc[nH]c2c1=O` [Compound I-361], the GI50 in assay [1] was less than 500 nM.

On to `Cn1cc(-c2cc(C(C)(C)O)ccc2Oc2ccc(N3CC(C4CCCN(c5ncc(C(=O)N[C@H]6C(C)(C)[C@H](Oc7ccc(C#N)c(Cl)c7)C6(C)C)cn5)CCC4)C3)cc2)c2cc[nH]c2c1=O` [Compound I-362], for which the GI50 in assay [1] was less than 500 nM.

Consider `Cn1cc(-c2ccccc2Oc2ccc(N3CC(CC4CN(c5ncc(C(=O)N[C@H]6C(C)(C)[C@H](Oc7ccc(C#N)c(Cl)c7)C6(C)C)cn5)C4)C3)cc2)c2cc[nH]c2c1=O` [Compound I-363], for which, in assay [1], the GI50 is less than 500 nM. In assay [1], `Cn1cc(-c2ccccc2Oc2ccc(N3CC(CC4CCN(c5ccc(C(=O)N[C@H]6C(C)(C)[C@H](Oc7ccc(C#N)c(Cl)c7)C6(C)C)nc5)CC4)C3)cc2)c2cc[nH]c2c1=O` [Compound I-364] came in with a GI50 of more than 3000 nM. The same measure, in the same setting: under `Cn1cc(-c2ccccc2Oc2ccc(N3CC(C4CCN(c5cnc(C(=O)N[C@H]6C(C)(C)[C@H](Oc7ccc(C#N)c(Cl)c7)C6(C)C)cn5)CC4)C3)cc2)c2cc[nH]c2c1=O` [Compound I-365] stands less than 500 nM. On to `Cn1cc(-c2cc(C(C)(C)O)ccc2Oc2ccc(OC3CC4(C3)CC3(CCN(c5cnc(C(=O)N[C@H]6C(C)(C)[C@H](Oc7ccc(C#N)c(Cl)c7)C6(C)C)cn5)CC3)C4)cc2)c2cc[nH]c2c1=O` [Compound I-366], for which the GI50 in assay [1] (Homo sapiens) was more than 3000 nM. On the same count and under the same terms, under `Cn1cc(-c2cc(C(C)(C)O)ccc2Oc2ccc(OC3CC4(C3)CC3(CCN(c5ccc(C(=O)N[C@H]6C(C)(C)[C@H](Oc7ccc(C#N)c(Cl)c7)C6(C)C)nc5)CC3)C4)cc2)c2cc[nH]c2c1=O` [Compound I-367] stands more than 3000 nM; under `Cn1cc(-c2cc(C(C)(C)O)ccc2Oc2ccc(CC3CCN(c4ccc(C(=O)N[C@H]5C(C)(C)[C@H](Oc6ccc(C#N)c(Cl)c6)C5(C)C)nc4)CC3)cc2)c2cc[nH]c2c1=O` [Compound I-368], less than 500 nM; under `Cn1cc(-c2cc(C(C)(C)O)ccc2Oc2ccc(CC3CCN(c4ccc(C(=O)N[C@H]5C(C)(C)[C@H](Oc6ccc(C#N)c(Cl)c6)C5(C)C)cn4)CC3)cc2)c2cc[nH]c2c1=O` [Compound I-369], less than 500 nM. The same measure, in the same setting: under `Cn1cc(-c2cc(C(C)(C)O)ccc2Oc2ccc(CC3CCN(c4cnc(C(=O)N[C@H]5C(C)(C)[C@H](Oc6ccc(C#N)c(Cl)c6)C5(C)C)cn4)CC3)cc2)c2cc[nH]c2c1=O` [Compound I-370] stands less than 500 nM.

The values are drawn from patent US20250388605A1, “HETEROBIFUNCTIONAL COMPOUNDS AND METHODS OF TREATING DISEASE” (Halda Therapeutics OpCo, Inc., priority 2022, published 2025).
